Results on four compounds are retold here after ChEMBL document CHEMBL1201862, “PubChem BioAssay data set” (2004).

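Compound exposure: 48 hours, 5 concentrations, 96-well plates. GI50: concentration for 50% inhibition of growth.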 Active and inactive are the calls of the source. Cut-off read from the data, not from the text of the source: active = GI50 up to about 1.1 µM and inactive = higher.

Common to all, as to experiment: inhibition of tumour cell growth, NCI panel, 48 h
Test [1] has as its system 786-0.
In test [2] the test system is A498.
The subject of test [3] is A549.
The test system of test [4] is CCRF-CEM.
The subject of test [5] is COLO 205.
Test [6] deals with HCT-116.
For test [7], the system named is HOP-62.
Test [8] has as its system IGROV-1.
The subject of test [9] is K562.
For test [10], the system named is KM12.
Test [11] concerns LOX IMVI.
Test [12] deals with MOLT-4.
The subject of test [13] is OVCAR-3.
Test [14] relates to OVCAR-4.
The test system of test [15] is SF-268.
For test [16], the system named is SK-MEL-28.
The test system of test [17] is SNB-19.
The subject of test [18] is U-251.
Test [19] relates to UO-31.

`N#Cc1nc(CCC(c2nc(C#N)c(N)o2)N2C(=O)c3ccccc3C2=O)oc1N` (stereo unspecified): the GI50 was > 100 µM (inactive) in test [1]; > 100 µM (inactive) in [2]; > 100 µM (inactive) in [3]; > 10 µM (inactive) in [4]; > 100 µM (inactive) in test [5]; > 100 µM (inactive) in test [6]. Besides, the GI50 in test [7] was > 100 µM (inactive); in [8], > 100 µM (inactive); in [9], 32.8 µM (inactive); in test [10], > 100 µM (inactive); in test [11] it was > 100 µM (inactive); in test [12] it was 27.8 µM (inactive). Moreover, the GI50 in test [13] was > 100 µM (inactive); in [14], 67.6 µM (inactive); in test [15], > 100 µM (inactive); in test [16], > 100 µM (inactive); in [17] it was > 100 µM (inactive); in test [18], > 100 µM (inactive). In addition, the GI50 in [19] is > 100 µM (inactive).

As for `CC1=C2[C@@H](c3ccccc3)C3C=CC2(c2ccccc23)N(C(=O)Nc2cccc3ccccc23)C1=O` (stereo partly specified), the GI50 in [1], in test [2], in [3], in test [4], in test [5] and in [6] was > 100 µM (inactive) in each case. Besides, the GI50 in test [7], in test [8], in [9], in test [10], in test [11] and in test [12] was > 100 µM (inactive) each time. Also, the GI50 in test [13], in [14], in test [15], in test [16], in [17] and in test [18] was > 100 µM (inactive) each time. Besides, in test [19], the GI50 was > 100 µM (inactive).

Take `O=c1[nH]c(=O)n([C@H]2C[C@@H](CO)[C@@H](O)C2)cc1I`: the GI50 in test [1], in test [2], in test [3], in [4], in test [5] and in test [6] was > 100 µM (inactive) each time. For the same compound, the GI50 in [7], in test [8], in [9], in [10], in test [11] and in test [12] was > 100 µM (inactive) in each case. Further, the GI50 in test [13], in [14], in test [15], in [16], in [17] and in test [18] was > 100 µM (inactive) in each case. For the same compound, in [19], the GI50 is > 100 µM (inactive).

On to `COc1ccc2nc3ccccc3c(NCCCCCCN(C)CCCl)c2c1`, for which the GI50 was 0.177 µM (active) in test [1]; 1.16 µM (inactive) in test [2]; 0.297 µM (active) in [3]; 0.0368 µM (active) in [4]; 0.265 µM (active) in test [5]; 0.0887 µM (active) in test [6]. Also, the GI50 is 1.05 µM (active) in test [7]; 0.163 µM (active) in test [8]; 0.0582 µM (active) in test [9]; 0.27 µM (active) in test [10]; 0.162 µM (active) in [11]; < 0.01 µM (active) in [12]. Besides, the GI50 in [13] was 1.19 µM (inactive); in test [14], 1.09 µM (active); in test [15], 0.133 µM (active); in test [16], 0.986 µM (active); in [17], 1.17 µM (inactive); in [18] it was 0.286 µM (active). Besides, the GI50 in test [19] is 1.36 µM (inactive).
